Tests used:
[1] = target: Calcium/calmodulin-dependent protein kinase type II subunit delta (Homo sapiens) (UniProt Q13557)
[2] = target: Calcium/calmodulin-dependent protein kinase kinase 2 (Homo sapiens, UniProt Q96RR4)
[3] = target: Dual specificity protein kinase CLK2 (Homo sapiens) (UniProt P49760)
[4] = target: Casein kinase I isoform gamma-3 (Homo sapiens) (UniProt Q9Y6M4)
[5] = target: T1, Myotonin-protein kinase (Homo sapiens) (UniProt Q09013)
T1 sequence (whole entry): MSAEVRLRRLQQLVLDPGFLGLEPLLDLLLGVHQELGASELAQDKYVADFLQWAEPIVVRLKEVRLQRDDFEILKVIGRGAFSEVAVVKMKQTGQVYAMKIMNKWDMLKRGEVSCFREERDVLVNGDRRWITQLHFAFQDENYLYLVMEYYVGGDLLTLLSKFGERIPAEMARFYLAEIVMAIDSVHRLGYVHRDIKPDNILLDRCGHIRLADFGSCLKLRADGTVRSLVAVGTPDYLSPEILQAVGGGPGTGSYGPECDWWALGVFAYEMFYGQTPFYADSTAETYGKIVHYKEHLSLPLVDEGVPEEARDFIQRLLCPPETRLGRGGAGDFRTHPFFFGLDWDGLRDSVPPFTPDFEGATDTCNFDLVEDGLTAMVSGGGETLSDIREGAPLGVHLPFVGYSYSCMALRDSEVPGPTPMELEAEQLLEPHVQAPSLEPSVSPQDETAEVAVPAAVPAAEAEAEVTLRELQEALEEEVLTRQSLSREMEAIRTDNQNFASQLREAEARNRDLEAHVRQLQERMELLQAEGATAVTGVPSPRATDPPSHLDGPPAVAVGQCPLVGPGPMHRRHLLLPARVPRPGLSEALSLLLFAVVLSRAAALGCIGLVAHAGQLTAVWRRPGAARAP

[6] = target: Glycogen synthase kinase-3 beta (Homo sapiens, UniProt P49841)
[7] = target: Mitogen-activated protein kinase 11 (Homo sapiens, UniProt Q15759)
Mitogen-activated protein kinase 11, sequence (Q15759 whole entry): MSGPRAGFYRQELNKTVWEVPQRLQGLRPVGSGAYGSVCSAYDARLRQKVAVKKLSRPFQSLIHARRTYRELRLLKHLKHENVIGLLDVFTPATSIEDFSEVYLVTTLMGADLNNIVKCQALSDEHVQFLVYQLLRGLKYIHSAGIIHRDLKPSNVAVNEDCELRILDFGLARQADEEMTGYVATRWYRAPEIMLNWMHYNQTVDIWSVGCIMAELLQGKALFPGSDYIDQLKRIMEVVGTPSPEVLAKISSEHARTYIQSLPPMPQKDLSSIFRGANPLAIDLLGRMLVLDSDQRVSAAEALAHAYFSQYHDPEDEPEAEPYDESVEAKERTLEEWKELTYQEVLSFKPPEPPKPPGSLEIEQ

[8] = target: Serine/threonine-protein kinase PAK 4 (Homo sapiens) (UniProt O96013)
[9] = target: Serine/threonine-protein kinase PAK 5 (Homo sapiens) (UniProt Q9P286)
[10] = target: Cyclin-dependent kinase 16 (Homo sapiens) (UniProt Q00536)
[11] = target: Serine/threonine-protein kinase pim-2 (Homo sapiens, UniProt Q9P1W9)
[12] = target: Serine/threonine-protein kinase PLK1 (Homo sapiens) (UniProt P53350)
Serine/threonine-protein kinase PLK1 (Homo sapiens), sequence (P53350 whole entry): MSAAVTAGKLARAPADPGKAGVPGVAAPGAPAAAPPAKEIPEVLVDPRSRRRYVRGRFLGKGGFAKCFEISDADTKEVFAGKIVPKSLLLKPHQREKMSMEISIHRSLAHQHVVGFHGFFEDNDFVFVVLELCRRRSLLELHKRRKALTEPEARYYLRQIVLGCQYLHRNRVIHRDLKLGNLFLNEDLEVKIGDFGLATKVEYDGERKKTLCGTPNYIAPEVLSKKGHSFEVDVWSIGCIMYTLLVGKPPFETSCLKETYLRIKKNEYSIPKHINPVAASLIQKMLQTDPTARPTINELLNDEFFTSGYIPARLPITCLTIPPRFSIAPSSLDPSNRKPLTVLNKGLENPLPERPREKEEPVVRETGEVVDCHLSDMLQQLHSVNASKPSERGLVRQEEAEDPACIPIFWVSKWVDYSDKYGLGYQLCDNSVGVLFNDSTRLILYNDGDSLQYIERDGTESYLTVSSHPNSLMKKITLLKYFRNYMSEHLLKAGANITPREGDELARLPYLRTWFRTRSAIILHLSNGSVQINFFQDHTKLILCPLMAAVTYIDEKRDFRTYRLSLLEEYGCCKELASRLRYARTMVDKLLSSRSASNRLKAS

[13] = target: cAMP-dependent protein kinase catalytic subunit alpha (Homo sapiens) (UniProt P17612)
[14] = target: T2, Serine/threonine-protein kinase 4 (Homo sapiens) (UniProt Q13043)
T2 sequence (whole entry): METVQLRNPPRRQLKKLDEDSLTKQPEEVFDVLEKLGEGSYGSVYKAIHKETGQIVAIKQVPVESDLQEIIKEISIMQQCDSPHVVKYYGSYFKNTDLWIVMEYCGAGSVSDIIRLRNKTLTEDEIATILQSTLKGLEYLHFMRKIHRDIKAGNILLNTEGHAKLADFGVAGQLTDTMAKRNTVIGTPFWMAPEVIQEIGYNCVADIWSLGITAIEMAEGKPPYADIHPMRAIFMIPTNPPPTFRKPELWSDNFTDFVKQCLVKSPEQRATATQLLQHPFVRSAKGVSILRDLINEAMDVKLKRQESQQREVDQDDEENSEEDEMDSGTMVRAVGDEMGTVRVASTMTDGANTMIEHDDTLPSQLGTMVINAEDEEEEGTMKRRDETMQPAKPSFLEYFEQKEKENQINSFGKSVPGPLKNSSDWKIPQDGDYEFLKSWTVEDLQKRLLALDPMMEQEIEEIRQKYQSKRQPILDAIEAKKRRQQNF

[15] = target: TRAF2 and NCK-interacting protein kinase (Homo sapiens) (UniProt Q9UKE5)
TRAF2 and NCK-interacting protein kinase (Homo sapiens), sequence (Q9UKE5 whole entry, looked up): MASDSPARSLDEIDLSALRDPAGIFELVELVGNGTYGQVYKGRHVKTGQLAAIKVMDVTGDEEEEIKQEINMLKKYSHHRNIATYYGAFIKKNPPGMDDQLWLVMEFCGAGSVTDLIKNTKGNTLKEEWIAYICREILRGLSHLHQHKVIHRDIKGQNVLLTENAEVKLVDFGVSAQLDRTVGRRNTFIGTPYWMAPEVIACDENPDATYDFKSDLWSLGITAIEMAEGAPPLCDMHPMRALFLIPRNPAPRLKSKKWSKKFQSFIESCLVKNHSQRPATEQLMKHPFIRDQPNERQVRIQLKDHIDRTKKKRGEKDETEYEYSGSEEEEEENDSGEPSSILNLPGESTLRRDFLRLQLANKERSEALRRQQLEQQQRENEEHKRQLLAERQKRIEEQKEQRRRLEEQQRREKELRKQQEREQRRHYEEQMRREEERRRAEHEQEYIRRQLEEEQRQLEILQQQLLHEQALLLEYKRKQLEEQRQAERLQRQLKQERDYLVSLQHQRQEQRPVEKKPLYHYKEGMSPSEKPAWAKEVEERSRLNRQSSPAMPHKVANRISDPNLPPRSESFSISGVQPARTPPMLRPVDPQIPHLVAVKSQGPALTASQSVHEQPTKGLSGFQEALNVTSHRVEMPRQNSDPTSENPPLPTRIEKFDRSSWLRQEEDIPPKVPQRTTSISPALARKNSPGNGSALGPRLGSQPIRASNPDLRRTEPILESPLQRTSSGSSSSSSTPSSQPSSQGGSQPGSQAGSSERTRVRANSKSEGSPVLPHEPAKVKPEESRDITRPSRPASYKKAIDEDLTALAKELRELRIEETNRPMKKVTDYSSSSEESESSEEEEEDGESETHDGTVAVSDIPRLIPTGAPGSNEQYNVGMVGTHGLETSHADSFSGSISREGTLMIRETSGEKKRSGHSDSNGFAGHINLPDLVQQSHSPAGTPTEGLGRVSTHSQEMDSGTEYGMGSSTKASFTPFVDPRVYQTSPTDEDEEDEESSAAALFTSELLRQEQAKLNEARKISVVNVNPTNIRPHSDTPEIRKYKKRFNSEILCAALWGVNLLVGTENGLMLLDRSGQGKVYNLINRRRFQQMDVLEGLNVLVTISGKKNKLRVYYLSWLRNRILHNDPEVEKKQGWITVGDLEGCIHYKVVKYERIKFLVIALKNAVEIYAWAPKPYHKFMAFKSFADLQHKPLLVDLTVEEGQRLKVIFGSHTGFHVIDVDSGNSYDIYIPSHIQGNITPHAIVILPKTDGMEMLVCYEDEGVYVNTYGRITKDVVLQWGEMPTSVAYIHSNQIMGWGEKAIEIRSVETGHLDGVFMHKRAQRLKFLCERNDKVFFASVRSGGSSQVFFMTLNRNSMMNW

[16] = target: T3, Serine/threonine-protein kinase VRK1 (Homo sapiens) (UniProt Q99986)
T3 sequence (whole entry): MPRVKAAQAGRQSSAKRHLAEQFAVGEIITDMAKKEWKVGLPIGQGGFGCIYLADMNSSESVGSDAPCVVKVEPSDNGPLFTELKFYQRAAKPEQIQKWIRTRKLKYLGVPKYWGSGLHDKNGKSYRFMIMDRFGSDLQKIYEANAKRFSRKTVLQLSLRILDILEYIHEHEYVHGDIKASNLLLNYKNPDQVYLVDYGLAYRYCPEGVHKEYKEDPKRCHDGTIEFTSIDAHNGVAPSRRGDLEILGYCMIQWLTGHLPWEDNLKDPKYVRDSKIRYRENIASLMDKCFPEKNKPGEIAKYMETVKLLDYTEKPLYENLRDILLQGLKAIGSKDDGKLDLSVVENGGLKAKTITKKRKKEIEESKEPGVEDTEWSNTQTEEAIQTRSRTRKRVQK

[17] = target: Serine/threonine-protein kinase VRK2 (Homo sapiens) (UniProt Q86Y07)
Serine/threonine-protein kinase VRK2 (Homo sapiens), sequence (Q86Y07 whole entry): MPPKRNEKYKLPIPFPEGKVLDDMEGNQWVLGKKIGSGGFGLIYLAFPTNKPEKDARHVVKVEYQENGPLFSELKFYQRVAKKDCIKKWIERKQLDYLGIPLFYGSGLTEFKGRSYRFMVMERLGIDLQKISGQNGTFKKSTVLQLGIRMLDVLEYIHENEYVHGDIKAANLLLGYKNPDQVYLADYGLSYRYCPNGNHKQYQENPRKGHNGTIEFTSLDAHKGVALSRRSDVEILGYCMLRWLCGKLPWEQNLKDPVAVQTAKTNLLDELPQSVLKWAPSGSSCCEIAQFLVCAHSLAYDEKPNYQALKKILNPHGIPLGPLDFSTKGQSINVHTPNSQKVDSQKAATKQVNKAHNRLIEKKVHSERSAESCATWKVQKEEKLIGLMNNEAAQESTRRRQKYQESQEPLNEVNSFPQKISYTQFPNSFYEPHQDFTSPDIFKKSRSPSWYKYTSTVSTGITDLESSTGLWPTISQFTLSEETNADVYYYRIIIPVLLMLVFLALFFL

[18] = target: T4, Serine/threonine-protein kinase VRK3 (Homo sapiens) (UniProt Q8IV63)
T4 sequence (whole entry): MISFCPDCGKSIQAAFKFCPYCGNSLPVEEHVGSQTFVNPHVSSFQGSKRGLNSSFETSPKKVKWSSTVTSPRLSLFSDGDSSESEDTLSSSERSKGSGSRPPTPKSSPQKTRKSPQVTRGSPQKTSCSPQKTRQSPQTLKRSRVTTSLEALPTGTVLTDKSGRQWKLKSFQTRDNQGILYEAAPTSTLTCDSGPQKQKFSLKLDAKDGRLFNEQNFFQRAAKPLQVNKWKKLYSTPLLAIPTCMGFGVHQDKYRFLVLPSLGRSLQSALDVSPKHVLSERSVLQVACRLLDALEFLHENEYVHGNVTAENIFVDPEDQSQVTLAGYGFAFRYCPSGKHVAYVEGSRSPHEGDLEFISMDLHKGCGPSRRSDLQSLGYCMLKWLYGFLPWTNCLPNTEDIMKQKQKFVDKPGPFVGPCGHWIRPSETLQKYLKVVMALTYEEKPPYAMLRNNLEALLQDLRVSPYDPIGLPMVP

Calcium/calmodulin-dependent protein kinase kinase 2, sequence (Q96RR4 2-588 limits assumed): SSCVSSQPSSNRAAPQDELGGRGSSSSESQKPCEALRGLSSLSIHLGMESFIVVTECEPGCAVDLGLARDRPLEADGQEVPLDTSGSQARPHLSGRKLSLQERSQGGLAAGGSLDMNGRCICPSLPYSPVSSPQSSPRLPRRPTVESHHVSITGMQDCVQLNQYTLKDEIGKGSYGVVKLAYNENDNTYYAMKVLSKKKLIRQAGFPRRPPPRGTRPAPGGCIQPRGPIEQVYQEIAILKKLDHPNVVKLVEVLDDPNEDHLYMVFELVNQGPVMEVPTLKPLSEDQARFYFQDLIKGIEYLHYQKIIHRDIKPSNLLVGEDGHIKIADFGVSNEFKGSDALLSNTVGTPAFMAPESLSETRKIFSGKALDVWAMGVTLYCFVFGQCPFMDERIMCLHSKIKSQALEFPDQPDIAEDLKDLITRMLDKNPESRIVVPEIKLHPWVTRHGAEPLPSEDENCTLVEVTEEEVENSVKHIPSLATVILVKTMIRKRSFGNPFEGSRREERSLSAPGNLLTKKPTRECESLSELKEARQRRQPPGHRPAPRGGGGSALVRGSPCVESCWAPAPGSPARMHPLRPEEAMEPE
Calcium/calmodulin-dependent protein kinase type II subunit delta (Homo sapiens), sequence (Q13557 whole entry): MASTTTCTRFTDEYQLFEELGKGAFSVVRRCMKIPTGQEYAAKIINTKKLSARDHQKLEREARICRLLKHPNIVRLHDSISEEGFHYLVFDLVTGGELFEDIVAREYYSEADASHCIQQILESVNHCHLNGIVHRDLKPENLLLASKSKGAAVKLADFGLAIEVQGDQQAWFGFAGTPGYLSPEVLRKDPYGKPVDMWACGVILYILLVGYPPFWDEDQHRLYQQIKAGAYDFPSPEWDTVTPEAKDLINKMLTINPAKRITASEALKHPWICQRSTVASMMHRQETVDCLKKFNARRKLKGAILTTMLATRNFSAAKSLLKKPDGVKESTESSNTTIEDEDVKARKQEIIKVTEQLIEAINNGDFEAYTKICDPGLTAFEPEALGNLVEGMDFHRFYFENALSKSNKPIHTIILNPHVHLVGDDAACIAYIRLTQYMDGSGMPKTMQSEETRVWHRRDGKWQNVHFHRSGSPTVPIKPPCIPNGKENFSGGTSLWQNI
Casein kinase I isoform gamma-3 (Homo sapiens), sequence (Q9Y6M4 whole entry, looked up, canonical isoform): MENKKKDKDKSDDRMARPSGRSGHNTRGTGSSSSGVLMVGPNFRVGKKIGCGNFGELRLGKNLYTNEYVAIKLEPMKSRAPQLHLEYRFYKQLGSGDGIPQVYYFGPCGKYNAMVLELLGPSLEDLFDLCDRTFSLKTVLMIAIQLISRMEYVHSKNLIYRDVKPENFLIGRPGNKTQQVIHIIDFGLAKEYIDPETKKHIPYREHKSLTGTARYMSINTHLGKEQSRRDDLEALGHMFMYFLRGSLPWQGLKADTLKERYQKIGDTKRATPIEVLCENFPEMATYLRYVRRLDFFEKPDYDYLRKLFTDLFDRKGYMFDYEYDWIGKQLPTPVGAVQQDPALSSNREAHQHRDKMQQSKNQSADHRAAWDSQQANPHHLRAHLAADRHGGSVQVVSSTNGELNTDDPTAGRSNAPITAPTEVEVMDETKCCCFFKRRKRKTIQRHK
Dual specificity protein kinase CLK2 (Homo sapiens), sequence (P49760 whole entry, looked up, canonical isoform): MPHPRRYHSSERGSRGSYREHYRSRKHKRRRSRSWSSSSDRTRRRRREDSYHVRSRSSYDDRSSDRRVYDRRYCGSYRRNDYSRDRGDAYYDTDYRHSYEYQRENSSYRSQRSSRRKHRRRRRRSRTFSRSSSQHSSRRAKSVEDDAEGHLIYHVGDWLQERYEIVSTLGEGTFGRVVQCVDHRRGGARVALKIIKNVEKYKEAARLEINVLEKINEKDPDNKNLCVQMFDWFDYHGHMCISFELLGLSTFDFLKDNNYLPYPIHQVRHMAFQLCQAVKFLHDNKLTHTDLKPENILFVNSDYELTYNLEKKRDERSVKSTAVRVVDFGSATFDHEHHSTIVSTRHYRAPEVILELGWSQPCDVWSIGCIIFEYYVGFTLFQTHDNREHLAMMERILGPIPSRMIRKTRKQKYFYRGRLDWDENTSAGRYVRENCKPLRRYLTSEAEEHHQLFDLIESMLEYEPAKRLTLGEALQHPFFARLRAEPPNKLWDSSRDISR

Structure (SMILES) | ΔTm [1] [°C] | ΔTm [2] [°C] | ΔTm [3] [°C] | ΔTm [4] [°C] | ΔTm [5] [°C] | ΔTm [6] [°C] | ΔTm [7] [°C] | ΔTm [8] [°C] | ΔTm [9] [°C] | ΔTm [10] [°C] | ΔTm [11] [°C] | ΔTm [12] [°C] | ΔTm [13] [°C] | ΔTm [14] [°C] | ΔTm [15] [°C] | ΔTm [16] [°C] | ΔTm [17] [°C] | ΔTm [18] [°C]
N#C/C(=C(/N)Sc1ccc(N)cc1)c1ccccc1C(F)(F)F | 0.1 | -0.2 | 0 | 0.6 | 0.3 | -0.1 | 0 | 1.3 | 0.6 | 0 | 0.2 | -0.2 | 0.7 | 0.8 | -0.1 | 0.4 | 0.1 | 0.5
O=C1NC(=O)C(c2cn(CCCn3ccnc3)c3ccccc23)=C1Nc1ccccc1 | 0.1 | 3.8 | 4.3 | 0.5 | 4.5 | 8.4 | 0 | 0.7 | 0.1 | 0.6 | 1.5 | 1.2 | 0.3 | 0.8 | -0.7 | 0.6 | 0.4 | 1.6
c1ccc(-c2n[nH]c3c2oc2ccccc23)cc1 | -0.2 | 2.5 | 1.7 | 0.5 | 0 | 0.8 | 1.2 | -0.3 | 0.3 | -0.2 | 1.1 | 2.2 | 2.8 | 4.3 | 0.4 | 1 | 0.6 | 1.8
NC(=O)c1ccc2[nH]c(-c3ccc(Oc4ccc(Cl)cc4)cc3)nc2c1 | 1.5 | 2.4 | -0.4 | 1.3 | 1.3 | 1 | -0.4 | 1.3 | -0.2 | -1.4 | 1 | 4.4 | 0.4 | -0.2 | -1.6 | 0.5 | 0.5 | 1.2
CN(C)CCCn1cc(C2=C(c3c[nH]c4ccccc34)C(=O)NC2=O)c2ccccc21 [GF-109203] | 1.1 | 2.6 | 4.1 | 0.3 | 3.9 | 8.7 | 0.7 | 2.5 | 1 | 3 | 5.2 | 1 | 3.6 | 5.7 | 2 | 0.2 | 0.9 | 0
O=C1NC(=O)c2c1c1c3ccccc3[nH]c1n1cncc21 [ISOGRANULATIMIDE] | 1 | 0.5 | 4.1 | 3.6 | 2.2 | 8.8 | 2 | 3.8 | 1.3 | 3.1 | 8 | 9.3 | 5.9 | 2.5 | 0 | 1.7 | 2 | 3.7
Cc1ccc(NC(=O)c2cccc(N(C)C)c2)cc1NC(=O)c1ccc(O)cc1 | 0 | 0.4 | 0.2 | 0.3 | -0.8 | 0 | 4.1 | 0.4 | 0.6 | 0.3 | 0 | 0.9 | 0.9 | 0 | 0.1 | -0.3 | 0.2 | -0.1
CCOc1ccc(/C=C2/SC(=O)N(CCN)C2=O)cc1 [HIAZOLIDINEDIONE1] | 0 | -0.4 | 0.2 | -0.1 | 1.4 | -1.3 | 0.5 | 0.6 | 0.1 | 0.2 | -0.1 | 0.6 | 0.5 | 0.4 | -0.4 | 0.3 | 0.1 | -1.1
N#CCCc1ccc2c(c1)-c1[nH]c3ccc([N+](=O)[O-])cc3c1CC(=O)N2 [ALSTERPAULLONE 2] | -0.3 | 2.3 | 1.4 | 1.6 | 4.8 | 11.8 | 0.5 | 4.3 | 3.9 | 8.7 | 1.4 | 0.4 | 1.1 | 5.9 | 5.4 | 1.1 | 0.7 | 0.6
C[S+]([O-])c1ccc(-c2nc(-c3ccc(F)cc3)c(-c3ccncc3)[nH]2)cc1 (stereo not drawn) [SB-203580] | -0.3 | 0 | 0.2 | 0.4 | 0.1 | 3.5 | 9.6 | 0.1 | -0.1 | -0.8 | 0 | 0.2 | 0 | 1 | 2 | -0.1 | 0.6 | 0
O=C1c2ccccc2-[n+]2ccc3c([nH]c4ccccc43)c21 [FASCAPLYSIN CHLORIDE] | -2.9 | -2.1 | -0.4 | -0.8 | -0.9 | 0.1 | -1.3 | -0.6 | 0.3 | -0.6 | -2.4 | 0.8 | 0.6 | -1.6 | -0.9 | -1.2 | -0.8 | -0.4

From ChEMBL document CHEMBL1145498, “A systematic interaction map of validated kinase inhibitors with Ser/Thr kinases” (Proc Natl Acad Sci U S A, 2007)
